Reference: patent US20250375544A1, “DUAL MODE RADIOTRACER AND -THERAPEUTICS” (TECHNISCHE UNIVERSITÄT MÜNCHEN, priority 2021, published 2025)

What was measured:
[1] = system: LNCaP tumor xenograft-bearing CB17-SCID mouse; test: Metabolite analysis 1 h p.i. (radio-RP-HPLC of organ and body fluid extracts); assay type: in vivo, mice
Method: […] (9.64 MBq) was injected into the tail vein of a LNCaP tumor xenograft-bearing CB17-SCID mouse. The animal was sacrificed 1 h p.i. and subjected to the standard procedure for biodistribution studies. In addition, urine was taken from all mice that were investigated in this experiment (8.4-9.0 MBq) and pooled (n=5). Relevant dissected organs (tumor, kidneys, liver) and body fluids (blood and urine) were collected, homogenized if necessary and subjected to mechanochemical as well as solid phase extraction (SPE).
Four 2 mL LoBind tubes were equipped with steel and ceramic beads from Lysis Tubes W (analytikjena, Jena, Germany) for kidneys, tumor and liver (bisected). 1 mL radioimmunoprecipitation assay (RIPA) buffer containing 2.0 μmol of 2-PMPA was added to each tube and the organs were homogenized with a MM-400 ball mill (Retsch GmbH, Haan, Germany) at 30 Hz for 20 min. Afterwards, the homogenates were transferred to LoBind tubes free from steel and ceramic beads and centrifuged (15,200 rpm, 10 min, 21° C.). The first supernatants were stored, and the precipitates were again subjected to mechanochemical extraction with 1 mL RIPA buffer (2.0 μmol PMPA) at 30 Hz for 20 min. After centrifugation (15,200 rpm, 10 min, 21° C.), also the second supernatants were kept for SPE.
After cardiac puncture, 1 mL Tracepur®-H2O was directly added to the collected blood sample and centrifuged twice (13,000 rpm, 5 min) to separate the plasma from the blood cells. The precipitate was dissolved in 500 μL Tracepur®-H2O and together with the first supernatant again centrifuged (13,000 rpm, 5 min). Both supernatants were kept for SPE.
Pooled urine samples were centrifuged (13,000 rpm, 5 min) and the supernatant was directly analyzed via radio-RP-HPLC.
For solid phase extraction, the supernatants were loaded onto Strata-X cartridges (200 mg), which were preconditioned with 5 mL MeOH and 5 mL H2O (eight cartridges in total, for all organ and blood supernatants). The cartridges were washed with 1 mL Tracepur®-H2O and dried prior to elution. For each cartridge, 750 μL of MeCN/H2O (6/4, 0.1% TFA) were used for elution and the extracts were analyzed via radio-RP-HPLC.
Besides biodistribution and μSPECT/CT studies, [^177Lu]Lu-11 (tetrazole) was analyzed according to its metabolic stability 1 h p.i. Relevant dissected organs (tumor, kidney, liver) and body fluids (blood and urine) were collected, homogenized if necessary and subjected to extraction of the incorporated activity. […] The respective radio-RP-HPLC analyses of extracts from homogenized organs and body fluids are depicted in FIG. 10.

LNCaP cells = assay type: cell-based, human; settings: 1 h, 37° C., 1.0 nM ^177Lu-compound, normalized to ([^125I]I-BA)KuE
[2] = system: LNCaP tumor xenograft-bearing CB17-SCID mice; test: Biodistribution in LNCaP tumor xenograft-bearing CB17-SCID mice

CC(C)(C)[Si](F)(c1ccc(C(=O)NCC(NC(=O)CN2CCN(CC(=O)[O-])CCN(CC(=O)[O-])CCN(CC(=O)[O-])CC2)C(=O)NC(CCCCNC(=O)CCC(=O)NCCCC(NC(=O)CCC(NC(=O)NC(CCc2nnn[nH]2)C(=O)O)C(=O)O)C(=O)O)C(=O)O)cc1)C(C)(C)C.[177Lu+3] (stereo not drawn) [[^177Lu]Lu-11, [^177Lu]Lu-Tetrazole Derivative 11]
metabolite with higher hydrophilicity, amount ([1]; blood): 8.5% | metabolite with higher hydrophilicity, amount ([1]; kidney): 11.7% | metabolite with higher hydrophilicity ([1]; liver homogenate): not detectable | more lipophilic metabolite (tR=20.5 min), amount ([1]; liver homogenate): 28.0% | metabolite with higher hydrophilicity, amount ([1]; tumor): 7.1% | metabolite with higher hydrophilicity, amount ([1]; urine): 18.7% | % Internalization compared to the reference (LNCaP cells): 9.9±3.2% | Biodistribution Adrenals ([2]; 1 h p.i.): 0.61 ± 0.42 % ID/g | Biodistribution Blood ([2]; 1 h p.i.): 1.09 ± 0.30 % ID/g | Biodistribution Bone ([2]; 1 h p.i.): 0.47 ± 0.44 % ID/g | Biodistribution Heart ([2]; 1 h p.i.): 0.41 ± 0.04 % ID/g | Biodistribution Intestine ([2]; 1 h p.i.): 0.67 ± 0.21 % ID/g | Biodistribution Kidneys ([2]; 1 h p.i.): 33.2±3.8 % ID/g | Biodistribution Liver ([2]; 1 h p.i.): 0.74 ± 0.17 % ID/g | Biodistribution Lung ([2]; 1 h p.i.): 1.23 ± 0.27 % ID/g | Biodistribution Muscle ([2]; 1 h p.i.): 0.15 ± 0.03 % ID/g | Biodistribution Pancreas ([2]; 1 h p.i.): 0.33 ± 0.11 % ID/g | Biodistribution Parotid gland ([2]; 1 h p.i.): 0.56 ± 0.08 % ID/g | Biodistribution Spleen ([2]; 1 h p.i.): 1.04 ± 0.15 % ID/g | Biodistribution Stomach ([2]; 1 h p.i.): 1.55 ± 1.67 % ID/g | Biodistribution Submandibular gland ([2]; 1 h p.i.): 0.40 ± 0.05 % ID/g | Biodistribution Tumor ([2]; 1 h p.i.): 3.40±0.63 % ID/g | Ratio Tumor-to-blood ([2]; 1 h p.i.): 3.46 ± 1.62 | Ratio Tumor-to-kidney ([2]; 1 h p.i.): 0.10 ± 0.03 | Ratio Tumor-to-liver ([2]; 1 h p.i.): 5.00 ± 2.11 | Ratio Tumor-to-muscle ([2]; 1 h p.i.): 24.9 ± 10.2 | Ratio Tumor-to-parotid gland ([2]; 1 h p.i.): 6.20 ± 1.74 | Ratio Tumor-to-submandibular gland ([2]; 1 h p.i.): 8.74 ± 2.52 | tumor-to-submandibularis and -parotidea ratios at 1 h p.i. compared to respective values at 24 h p.i. ([2]; 1 h p.i. vs 24 h p.i.): two-fold lower | Biodistribution Adrenals ([2]; 24 h p.i.): 0.17 ± 0.19 % ID/g | Biodistribution Blood ([2]; 24 h p.i.): 0.00 ± 0.00 % ID/g | Biodistribution Bone ([2]; 24 h p.i.): 0.18 ± 0.04 % ID/g | Biodistribution Heart ([2]; 24 h p.i.): 0.02 ± 0.00 % ID/g | Biodistribution Intestine ([2]; 24 h p.i.): 0.52 ± 0.68 % ID/g | Biodistribution Kidneys ([2]; 24 h p.i.): 3.23 ± 0.77 % ID/g | Biodistribution Liver ([2]; 24 h p.i.): 0.18 ± 0.04 % ID/g | Biodistribution Lung ([2]; 24 h p.i.): 0.05 ± 0.02 % ID/g | Biodistribution Muscle ([2]; 24 h p.i.): 0.02 ± 0.01 % ID/g | Biodistribution Pancreas ([2]; 24 h p.i.): 0.02 ± 0.00 % ID/g | Biodistribution Parotid gland ([2]; 24 h p.i.): 0.06 ± 0.02 % ID/g | Biodistribution Spleen ([2]; 24 h p.i.): 0.11 ± 0.03 % ID/g | Biodistribution Stomach ([2]; 24 h p.i.): 0.12 ± 0.11 % ID/g | Biodistribution Submandibular gland ([2]; 24 h p.i.): 0.04 ± 0.01 % ID/g | Biodistribution Tumor ([2]; 24 h p.i.): 0.68 ± 0.16 % ID/g | Ratio Tumor-to-blood ([2]; 24 h p.i.): 227 ± 50 | Ratio Tumor-to-kidney ([2]; 24 h p.i.): 0.22 ± 0.06 | Ratio Tumor-to-liver ([2]; 24 h p.i.): 3.74 ± 0.50 | Ratio Tumor-to-muscle ([2]; 24 h p.i.): 55.9 ± 24.3 | Ratio Tumor-to-parotid gland ([2]; 24 h p.i.): 12.2 ± 1.7 | Ratio Tumor-to-submandibular gland ([2]; 24 h p.i.): 16.9 ± 2.2 | factor by which tumor-to-submandibular gland and tumor-to-parotid gland ratios declined ([2]; 24 h p.i., in comparison to [^177Lu]Lu-PSMA-10): 8
